In patent US20100297688A1, “METHOD FOR DIAGNOSING OR PREDICTING SHORT STATURE IN HUMANS” (priority 2009, published 2010):
No end group written: not given here.

Key:
[1] = adult dogs, after treatment with GH for 3 months, histomorphometry; cited from earlier work
GH secretion = test: GHRH test (GH stimulation test) in children with short stature; type: in vivo, human; conditions: GHRH 1 μg/kg IV at 0 min; GH peaks induced consistently in the first 30 min
Method: Patients. A GHRH test was conducted after overnight fasting, modified with samples that were obtained at 3, 5, and 10 minutes in addition to routine protocol collection of samples at 30 minutes, 60 minutes, 90 minutes and 120 minutes following GHRH injection (GHRH1-29: GEREF, SERONO, Italy; 1 μg/kg IV at 0 min). A total of 19 children (8.6±3.2, range from 2.5 yrs to 14 yrs, 5 girls) who suffered SS (short stature) (Ht−2.5±0.6 SDS) were administered GHRH 1 μg/kg IV at 0 min and blood samples were obtained at 0, 3, 5, 10, 30, 60, 90 and 120 min. GH was determined in all samples.
Blood sample processing. GH and IGF-1 were analyzed at Esoterix (Texas, U.S.). IGF1 was measured by radioimmunoassay after acid-ethanol extraction and with IGF2 blocking. A 100 uL of sample was initially used for the procedure. Growth hormone was tested by ICMA, requires min amount of 0.2 ml of serum, preparation include 1 mL serum, separate within one hour that was shipped frozen in plastic vial (http://www.esoterix.com/prodserv/test_menu!)
AUC measurements for GH were calculated according trapezoid rule (Tai MM 1994 A mathematical model for the determination of total area under glucose tolerance and other metabolic curves. Diabetes Care 17:p 152-4).

Row | Substance | increase in cortical bone mass [1] | time of GH peak after GHRH (GH secretion)
1 | Growth hormone [GH] | 2% | –
2 | Growth hormone releasing hormone (YADAIFTNSYRKVLGQLSARKLLQDIMSR; ends and bridges not checked; UniProt P01286 32-60, looked up, fragment) [GHRH, GHRH1-29: GEREF, SERONO, Italy; stimulator of GH secretion] | – | ≤ 30 min
